These molecules were tested against T1, GST-FAK (N-terminal GST fusion with truncated human FAK (376-1052 (end) amino acids)) (Homo sapiens, UniProt Q05397) (assay: Biochemical enzyme assay for FAK activity (Caliper LC3000 mobility shift)). Conditions: Table 5; 100 uM ATP; read-out: FAK IC50.
T1 construct: truncated human FAK (376-1052 (end) amino acids)
Procedure, shortened: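 Inhibitor dose series in DMSO were incubated 90 min at 25 °C with truncated GST-tagged human FAK (0.067 ng/µl) and FITC-labelled peptide substrate (1 µM), with ATP at 100 µM and FERM peptide at 1 mM (pH 7.5 HEPES). After EDTA quench, phosphorylated and unphosphorylated peptides were resolved electrophoretically. Percent conversion was fitted for IC50.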

T1 sequence (Q05397 376-1052): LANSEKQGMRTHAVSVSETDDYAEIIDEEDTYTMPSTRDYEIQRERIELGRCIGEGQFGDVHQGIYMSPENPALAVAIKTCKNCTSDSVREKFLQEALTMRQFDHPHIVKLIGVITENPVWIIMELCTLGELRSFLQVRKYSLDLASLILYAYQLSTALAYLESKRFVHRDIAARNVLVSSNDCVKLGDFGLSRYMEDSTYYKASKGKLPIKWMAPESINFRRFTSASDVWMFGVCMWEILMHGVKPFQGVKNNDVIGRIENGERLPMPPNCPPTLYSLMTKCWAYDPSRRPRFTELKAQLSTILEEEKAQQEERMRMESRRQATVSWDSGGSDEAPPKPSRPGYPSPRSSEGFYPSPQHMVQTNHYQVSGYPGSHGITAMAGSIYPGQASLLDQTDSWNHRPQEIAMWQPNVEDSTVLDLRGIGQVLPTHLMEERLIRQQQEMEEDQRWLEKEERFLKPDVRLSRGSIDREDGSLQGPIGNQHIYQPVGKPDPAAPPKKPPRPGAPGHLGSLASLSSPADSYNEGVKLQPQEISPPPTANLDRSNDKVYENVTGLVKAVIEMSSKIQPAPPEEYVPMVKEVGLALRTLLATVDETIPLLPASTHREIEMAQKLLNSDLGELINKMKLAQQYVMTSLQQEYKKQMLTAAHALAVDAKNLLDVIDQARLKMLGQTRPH

How did the IC50 turn out when COc1cncc(-c2nccc(NCc3ccc4[nH]c(=O)[nH]c4c3)n2)c1 [Compound 216, 5-{[2-(5-Methoxy-pyridin-3-yl)-pyrimidin-4-ylamino]-methyl}-1,3-dihydro-benzoimidazol-2-one] was run?
Its IC50 is > 10000 nM.

With Fc1ccc(CNc2ccnc(-c3ccc(F)nc3)n2)c(F)c1 [Compound 217, (2,4-Difluoro-benzyl)-[2-(6-fluoro-pyridin-3-yl)-pyrimidin-4-yl]-amine] as the molecule, how does the IC50 read?
Its IC50 is > 10000 nM.

With COc1cncc(-c2nccc(NCc3cc[nH]n3)n2)c1 [Compound 218, [2-(5-Methoxy-pyridin-3-yl)-pyrimidin-4-yl]-(1H-pyrazol-3-ylmethyl)-amine] as the molecule, how does the IC50 read?
Its IC50 is 1000 to 10000 nM.

How did the IC50 turn out when FC(F)(F)c1cncc(-c2nccc(NCc3ccccn3)n2)c1 [Compound 219, Pyridin-2-ylmethyl-[2-(5-trifluoromethyl-pyridin-3-yl)-pyrimidin-4-yl]-amine] was run?
Its IC50 is 100 to 1000 nM.

With N#Cc1cncc(-c2nccc(NCc3ccccn3)n2)c1 [Compound 220, 5-{4-[(Pyridin-2-ylmethyl)-amino]-pyrimidin-2-yl}-nicotinonitrile] as the molecule, how does the IC50 read?
Its IC50 is 1000 to 10000 nM.

COc1cncc(-c2nccc(NCc3csc(-c4ccccc4)n3)n2)c1 [Compound 221, [2-(5-Methoxy-pyridin-3-yl)-pyrimidin-4-yl]-(2-phenyl-thiazol-4-ylmethyl)-amine] was tested. Which IC50 did it give?
Its IC50 is > 10000 nM.

Which IC50 does the source give for COc1cncc(-c2nccc(NCc3cc(C)nn3C)n2)c1 [Compound 222, (2,5-Dimethyl-2H-pyrazol-3-ylmethyl)-[2-(5-methoxy-pyridin-3-yl)-pyrimidin-4-yl]-amine] here?
Its IC50 is > 10000 nM.

COc1cncc(-c2nccc(NCc3ccc(F)cc3F)n2)c1 [Compound 223, (2,4-Difluoro-benzyl)-[2-(5-methoxy-pyridin-3-yl)-pyrimidin-4-yl]-amine] was tested. Which IC50 did it give?
Its IC50 is < 100 nM.

COc1cncc(-c2nccc(NCc3cc(F)c(F)cc3F)n2)c1 [Compound 224, [2-(5-Methoxy-pyridin-3-yl)-pyrimidin-4-yl]-(2,4,5-trifluoro-benzyl)-amine] was tested. Which IC50 did it give?
Its IC50 is 100 to 1000 nM.

How did the IC50 turn out when COc1cncc(-c2nccc(NCc3cccc(C#N)c3)n2)c1 [Compound 225, 3-{[2-(5-Methoxy-pyridin-3-yl)-pyrimidin-4-ylamino]-methyl}-benzonitrile] was run?
Its IC50 is 1000 to 10000 nM.

With COc1cncc(-c2nccc(NCc3cc(F)ccc3F)n2)c1 [Compound 226, (2,5-Difluoro-benzyl)-[2-(5-methoxy-pyridin-3-yl)-pyrimidin-4-yl]-amine] as the molecule, how does the IC50 read?
Its IC50 is 100 to 1000 nM.

Which IC50 does the source give for COc1cncc(-c2nccc(NCc3ccccc3)n2)c1 [Compound 227, Benzyl-[2-(5-methoxy-pyridin-3-yl)-pyrimidin-4-yl]-amine] here?
The IC50 was 100 to 1000 nM.

With COc1cncc(-c2nccc(NCc3ccccn3)n2)c1 [Compound 228, [2-(5-Methoxy-pyridin-3-yl)-pyrimidin-4-yl]-pyridin-2-ylmethyl-amine] as the molecule, how does the IC50 read?
Its IC50 is 100 to 1000 nM.

How did the IC50 turn out when COc1cncc(-c2nccc(NCc3cccnc3)n2)c1 [Compound 229, [2-(5-Methoxy-pyridin-3-yl)-pyrimidin-4-yl]-pyridin-3-ylmethyl-amine] was run?
The IC50 was 1000 to 10000 nM.

COc1cncc(-c2nccc(NCc3ccncc3)n2)c1 [Compound 230, [2-(5-Methoxy-pyridin-3-yl)-pyrimidin-4-yl]-pyridin-4-ylmethyl-amine] was tested. Which IC50 did it give?
Its IC50 is > 10000 nM.

How did the IC50 turn out when Fc1ccc(CNc2cccc(-c3cncc(C(F)(F)F)c3)n2)c(F)c1 [Compound 231, (2,4-Difluoro-benzyl)-(5′-trifluoromethyl-[2,3′]bipyridinyl-6-yl)-amine] was run?
Its IC50 is < 100 nM.

How did the IC50 turn out when COc1cc(NC(=O)c2cc(NCc3ccc(F)cc3F)nc(-c3cncc(C(F)(F)F)c3)n2)ccn1 [Compound 232, 6-(2,4-Difluoro-benzylamino)-2-(5-trifluoromethyl-pyridin-3-yl)-pyrimidine-4-carboxylic acid (2-methoxy-pyridin-4-yl)-amide] was run?
Its IC50 is 1000 to 10000 nM.

For COc1ncccc1NC(=O)c1cc(NCc2ccc(F)cc2F)nc(-c2cncc(C(F)(F)F)c2)n1 [Compound 233, 6-(2,4-Difluoro-benzylamino)-2-(5-trifluoromethyl-pyridin-3-yl)-pyrimidine-4-carboxylic acid (2-methoxy-pyridin-3-yl)-amide], which IC50 is on record?
Its IC50 is 100 to 1000 nM.

For CNC(=O)c1ccccc1CNc1ccnc(-c2cncc(C(F)(F)F)c2)n1 [Compound 234, N-Methyl-2-{[2-(5-trifluoromethyl-pyridin-3-yl)-pyrimidin-4-ylamino]-methyl}-benzamide], which IC50 is on record?
Its IC50 is 1000 to 10000 nM.

O=C1c2ccccc2CN1c1ccnc(-c2cncc(C(F)(F)F)c2)n1 [Compound 235, 2-[2-(5-Trifluoromethyl-pyridin-3-yl)-pyrimidin-4-yl]-2,3-dihydro-isoindol-1-one] was tested. Which IC50 did it give?
Its IC50 is > 10000 nM.

Which IC50 does the source give for CS(=O)(=O)Nc1cccc(-c2nc(NCc3ccc(F)cc3F)c3nc[nH]c3n2)c1 [Compound 236, N-{3-[6-(2,4-Difluoro-benzylamino)-9H-purin-2-yl]-phenyl}-methanesulfonamide] here?
Its IC50 is > 10000 nM.

How did the IC50 turn out when Fc1ccc(CNc2nc(-c3cncc(C(F)(F)F)c3)nc3[nH]cnc23)c(F)c1 [Compound 237, (2,4-Difluoro-benzyl)-[2-(5-trifluoromethyl-pyridin-3-yl)-9H-purin-6-yl]-amine] was run?
The IC50 was 100 to 1000 nM.

FC(F)(F)c1cncc(-c2nccc(NCc3cccnc3)n2)c1 [Compound 238, Pyridin-3-ylmethyl-[2-(5-trifluoromethyl-pyridin-3-yl)-pyrimidin-4-yl]-amine] was tested. Which IC50 did it give?
Its IC50 is 100 to 1000 nM.

Which IC50 does the source give for FC(F)(F)c1cncc(-c2nccc(Nc3cn[nH]c3)n2)c1 [Compound 239, (1H-Pyrazol-4-yl)-[2-(5-trifluoromethyl-pyridin-3-yl)-pyrimidin-4-yl]-amine] here?
The IC50 was 1000 to 10000 nM.

Which IC50 does the source give for Fc1ccc(CNc2ccnc(-c3cccc(C(F)(F)F)c3)n2)c(F)c1 [Compound 240, (2,4-Difluoro-benzyl)-[2-(3-trifluoromethyl-phenyl)-pyrimidin-4-yl]-amine] here?
Its IC50 is > 10000 nM.

With CS(=O)(=O)Nc1cccc(-c2nccc(NCc3ccc(F)cc3F)n2)c1 [Compound 241, N-{3-[4-(2,4-Difluoro-benzylamino)-pyrimidin-2-yl]-phenyl}-methanesulfonamide] as the molecule, how does the IC50 read?
Its IC50 is > 10000 nM.

For CS(=O)(=O)Nc1cccc(-c2nc(NCc3ccc(F)cc3F)c3ncn(C4CCCCO4)c3n2)c1 (stereo not shown) [Compound 242, N-{3-[6-(2,4-Difluoro-benzylamino)-9-(tetrahydro-pyran-2-yl)-9H-purin-2-yl]-phenyl}-methanesulfonamide], which IC50 is on record?
Its IC50 is > 10000 nM.

Which IC50 does the source give for Fc1ccc(CNc2nc(-c3cncc(C(F)(F)F)c3)nc3c2ncn3C2CCCCO2)c(F)c1 (stereo not shown) [Compound 243, (2,4-Difluoro-benzyl)-[9-(tetrahydro-pyran-2-yl)-2-(5-trifluoromethyl-pyridin-3-yl)-9H-purin-6-yl]-amine] here?
Its IC50 is 100 to 1000 nM.

How did the IC50 turn out when Fc1cc(Cl)ccc1CNc1nccc(-c2cncc(C(F)(F)F)c2)n1 [Compound 244, (4-Chloro-2-fluoro-benzyl)-[4-(5-trifluoromethyl-pyridin-3-yl)-pyrimidin-2-yl]-amine] was run?
Its IC50 is 100 to 1000 nM.

With CS(=O)(=O)Nc1cccc(-c2nccc(NCc3ccc(F)cc3C(F)(F)F)n2)c1 [Compound 245, N-{3-[4-(4-Fluoro-2-trifluoromethyl-benzylamino)-pyrimidin-2-yl]-phenyl}-methanesulfonamide] as the molecule, how does the IC50 read?
Its IC50 is > 10000 nM.

For Cn1cc(NC(=O)c2cc(NCc3ccc(F)cc3F)nc(-c3cncc(C(F)(F)F)c3)n2)cn1 [Compound 246, 6-(2,4-Difluoro-benzylamino)-2-(5-trifluoromethyl-pyridin-3-yl)-pyrimidine-4-carboxylic acid (1-methyl-1H-pyrazol-4-yl)-amide], which IC50 is on record?
The IC50 was 100 to 1000 nM.

Fc1ccc(CNc2nccc(-c3cncc(C(F)(F)F)c3)n2)c(C(F)(F)F)c1 [Compound 247, (4-Fluoro-2-trifluoromethyl-benzyl)-[4-(5-trifluoromethyl-pyridin-3-yl)-pyrimidin-2-yl]-amine] was tested. Which IC50 did it give?
Its IC50 is < 100 nM.

Fc1ccc(CNc2nccc(-c3cncc(C(F)(F)F)c3)n2)c(F)c1 [Compound 248, (2,4-Difluoro-benzyl)-[4-(5-trifluoromethyl-pyridin-3-yl)-pyrimidin-2-yl]-amine] was tested. Which IC50 did it give?
The IC50 was < 100 nM.

CS(=O)(=O)N1CCOC(CNc2ccnc(-c3cncc(C(F)(F)F)c3)n2)C1 (stereo not shown) [Compound 249, (4-Methanesulfonyl-morpholin-2-ylmethyl)-[2-(5-trifluoromethyl-pyridin-3-yl)-pyrimidin-4-yl]-amine] was tested. Which IC50 did it give?
The IC50 was 1000 to 10000 nM.

How did the IC50 turn out when CCOC(=O)c1ccccc1Nc1ccnc(-c2cncc(C(F)(F)F)c2)n1 [Compound 250, 2-[2-(5-Trifluoromethyl-pyridin-3-yl)-pyrimidin-4-ylamino]-benzoic acid ethyl ester] was run?
The IC50 was > 10000 nM.

CN(c1ncccc1CNc1nccc(-c2cncc(C(F)(F)F)c2)n1)S(C)(=O)=O [Compound 251, N-Methyl-N-(3-{[4-(5-trifluoromethyl-pyridin-3-yl)-pyrimidin-2-ylamino]-methyl}-pyridin-2-yl)-methanesulfonamide] was tested. Which IC50 did it give?
The IC50 was 1000 to 10000 nM.

With Fc1ccc(CNc2cc(-c3cncc(C(F)(F)F)c3)ncn2)c(C(F)(F)F)c1 [Compound 252, (4-Fluoro-2-trifluoromethyl-benzyl)-[6-(5-trifluoromethyl-pyridin-3-yl)-pyrimidin-4-yl]-amine] as the molecule, how does the IC50 read?
The IC50 was 1000 to 10000 nM.

For Fc1cc(Cl)ccc1CNc1cc(-c2cncc(C(F)(F)F)c2)ncn1 [Compound 253, (4-Chloro-2-fluoro-benzyl)-[6-(5-trifluoromethyl-pyridin-3-yl)-pyrimidin-4-yl]-amine], which IC50 is on record?
The IC50 was 1000 to 10000 nM.

How did the IC50 turn out when Fc1ccc(CNc2cc(-c3cncc(C(F)(F)F)c3)ncn2)c(F)c1 [Compound 254, (2,4-Difluoro-benzyl)-[6-(5-trifluoromethyl-pyridin-3-yl)-pyrimidin-4-yl]-amine] was run?
The IC50 was > 10000 nM.

Which IC50 does the source give for CN(C)C(=O)c1ccccc1Nc1ccnc(-c2cncc(C(F)(F)F)c2)n1 [Compound 255, N,N-Dimethyl-2-[2-(5-trifluoromethyl-pyridin-3-yl)-pyrimidin-4-ylamino]-benzamide] here?
Its IC50 is > 10000 nM.

— US9199962B2, “Substituted azaheterocycles for the treatment of cancer” (Merck Patent GmbH, priority 2011, dated 2015)
